Assay results published in patent US20220401564A1 (DANA-FARBER CANCER INSTITUTE, INC., priority 2019, published 2022).

Legend:
Assay type in all cases: biochemical
[1] = target: T1, HDAC7 (Homo sapiens, UniProt Q8WUI4); experiment: HDAC enzymatic assay (Reaction Biology), Class 2A substrate; conditions: 10-dose response curve; read-out: Compound IC50 (M), HDAC7
T1 construct: purchased Reaction Biology
T1 sequence (Q8WUI4 1-952): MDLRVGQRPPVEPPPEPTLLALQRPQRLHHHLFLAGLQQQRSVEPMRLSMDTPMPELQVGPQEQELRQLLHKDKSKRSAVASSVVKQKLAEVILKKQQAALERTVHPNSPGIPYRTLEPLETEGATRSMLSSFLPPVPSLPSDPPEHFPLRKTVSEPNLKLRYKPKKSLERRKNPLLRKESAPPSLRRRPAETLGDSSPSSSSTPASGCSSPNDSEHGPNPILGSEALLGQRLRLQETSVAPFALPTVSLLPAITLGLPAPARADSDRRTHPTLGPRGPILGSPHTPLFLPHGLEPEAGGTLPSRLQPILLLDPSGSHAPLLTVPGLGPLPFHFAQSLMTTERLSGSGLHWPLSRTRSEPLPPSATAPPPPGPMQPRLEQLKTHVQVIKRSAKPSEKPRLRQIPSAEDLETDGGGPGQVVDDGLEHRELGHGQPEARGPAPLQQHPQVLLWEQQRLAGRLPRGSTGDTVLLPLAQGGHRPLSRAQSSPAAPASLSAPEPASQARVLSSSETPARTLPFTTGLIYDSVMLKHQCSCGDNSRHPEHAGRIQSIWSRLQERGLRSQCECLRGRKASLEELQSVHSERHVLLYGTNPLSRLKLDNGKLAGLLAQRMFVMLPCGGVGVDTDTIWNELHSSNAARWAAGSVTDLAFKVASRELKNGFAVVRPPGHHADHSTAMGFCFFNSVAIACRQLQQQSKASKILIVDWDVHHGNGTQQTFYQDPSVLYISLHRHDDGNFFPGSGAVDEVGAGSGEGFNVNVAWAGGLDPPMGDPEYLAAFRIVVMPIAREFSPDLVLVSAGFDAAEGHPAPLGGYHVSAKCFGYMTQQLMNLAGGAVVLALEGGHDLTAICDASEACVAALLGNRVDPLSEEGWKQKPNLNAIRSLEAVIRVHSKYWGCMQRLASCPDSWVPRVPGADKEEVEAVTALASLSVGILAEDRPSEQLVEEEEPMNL
Method: (§1) Compounds 2 and 9 were tested in an enzymatic assay from Reaction Biology® against HDAC isoforms.
(§2) Base Reaction buffer: 50 mM Tris-HCl, pH8.0, 137 mM NaCl, 2.7 mM KCl, and 1 mM MgCl2. Add fresh: 1 mg/ml BSA, 1% DMSO
(§3) Class 2A Substrate (HDAC4, HDAC5, HDAC7, and HDAC9): Boc-Lys(trifluoroacetyl)-AMC
(§4) 1. Delivered 2X enzyme in wells of reaction plate except in the control wells and added buffer to control wells. 2. Delivered compounds in 100% DMSO into the enzyme mixture by Acoustic technology (Echo550; nanoliter range). Spin down and pre-incubation. 3. Delivered 2X Substrate Mixture (Fluorogenic HDAC Substrate and co-factor if applicable) in all reaction wells to initiate the reaction. Spin and shake. 4. Incubated for 30 min for Class 2A, 1 h for HDAC1, 2, 3, and 6, and 2 h for the rest of HDAC isoforms and SIRTs at 30° C. with seal.
(§5) 5. Added Developer with Trichostatin A (or Nicotinamide for SIRTs) to stop the reaction and to generate fluorescent color. 6. The fluorescence that was generated was detected with excitation (Ex) at […] and emission (Em) at 460 nM by the EnVision Multilabel Plate Reader (PerkinElmer®, Santa Clara, Calif., USA).
(§6) IC50 values were derived from a 10-dose response curve. As shown in Tables 1-2, the addition of a linker and CRBN targeting group altered the isoform selectivity of the SAHA-based degrader compounds.

[2] = target: T2, HDAC9 (Homo sapiens, UniProt Q9UKV0); experiment: as above; conditions: 10-dose response curve; read-out: Compound IC50 (M), HDAC9
T2 construct: purchased Reaction Biology
Method: as §1, §2, §3, §4, §5, §6

[3] = target: HDAC3 (Homo sapiens, UniProt O15379); experiment: HDAC enzymatic assay (Reaction Biology), fluorogenic substrate; design: purchased Reaction Biology
Method: as §1, §2
(§7) Fluorogenic HDAC General Substrate (HDAC1, HDAC2, HDAC3, HDAC6, HDAC10, and HDAC11): 50 μM, Arg-His-Lys-Lys(Ac)-AMC
as §4, §5, §6

[4] = target: T3, HDAC6 (Homo sapiens, UniProt Q9UBN7); experiment: as above; design: purchased Reaction Biology
T3 sequence (Q9UBN7 1-1215): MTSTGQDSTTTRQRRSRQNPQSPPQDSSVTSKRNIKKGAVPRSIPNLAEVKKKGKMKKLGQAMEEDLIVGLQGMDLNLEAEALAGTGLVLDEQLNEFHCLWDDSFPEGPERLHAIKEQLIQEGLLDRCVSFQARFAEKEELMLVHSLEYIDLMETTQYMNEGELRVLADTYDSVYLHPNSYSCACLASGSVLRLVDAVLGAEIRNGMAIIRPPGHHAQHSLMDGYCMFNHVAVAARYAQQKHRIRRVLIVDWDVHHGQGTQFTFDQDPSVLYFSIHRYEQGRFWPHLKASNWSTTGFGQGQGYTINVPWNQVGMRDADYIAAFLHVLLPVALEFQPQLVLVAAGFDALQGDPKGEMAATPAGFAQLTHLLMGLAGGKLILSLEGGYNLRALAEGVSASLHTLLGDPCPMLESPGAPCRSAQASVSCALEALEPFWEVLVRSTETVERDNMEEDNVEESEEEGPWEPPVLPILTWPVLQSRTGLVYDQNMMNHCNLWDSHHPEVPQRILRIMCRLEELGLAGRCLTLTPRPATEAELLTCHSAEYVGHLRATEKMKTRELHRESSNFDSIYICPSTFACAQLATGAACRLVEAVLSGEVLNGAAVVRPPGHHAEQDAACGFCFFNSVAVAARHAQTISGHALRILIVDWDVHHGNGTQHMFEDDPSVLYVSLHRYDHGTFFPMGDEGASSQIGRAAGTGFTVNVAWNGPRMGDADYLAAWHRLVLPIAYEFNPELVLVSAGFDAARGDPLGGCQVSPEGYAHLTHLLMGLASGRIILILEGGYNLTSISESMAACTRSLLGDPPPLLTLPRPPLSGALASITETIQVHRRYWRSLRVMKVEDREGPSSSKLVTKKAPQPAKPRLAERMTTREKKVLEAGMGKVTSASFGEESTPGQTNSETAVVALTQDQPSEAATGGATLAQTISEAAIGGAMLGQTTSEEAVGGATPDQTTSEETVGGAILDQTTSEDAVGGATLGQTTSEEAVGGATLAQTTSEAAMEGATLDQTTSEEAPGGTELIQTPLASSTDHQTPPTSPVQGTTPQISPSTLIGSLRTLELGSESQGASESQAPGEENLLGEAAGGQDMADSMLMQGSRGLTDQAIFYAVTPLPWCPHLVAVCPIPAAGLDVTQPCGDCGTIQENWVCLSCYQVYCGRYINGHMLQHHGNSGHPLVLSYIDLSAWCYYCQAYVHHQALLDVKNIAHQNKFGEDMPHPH
Method: as §1, §2, §7, §4, §5, §6

HDAC3, sequence (O15379 whole entry): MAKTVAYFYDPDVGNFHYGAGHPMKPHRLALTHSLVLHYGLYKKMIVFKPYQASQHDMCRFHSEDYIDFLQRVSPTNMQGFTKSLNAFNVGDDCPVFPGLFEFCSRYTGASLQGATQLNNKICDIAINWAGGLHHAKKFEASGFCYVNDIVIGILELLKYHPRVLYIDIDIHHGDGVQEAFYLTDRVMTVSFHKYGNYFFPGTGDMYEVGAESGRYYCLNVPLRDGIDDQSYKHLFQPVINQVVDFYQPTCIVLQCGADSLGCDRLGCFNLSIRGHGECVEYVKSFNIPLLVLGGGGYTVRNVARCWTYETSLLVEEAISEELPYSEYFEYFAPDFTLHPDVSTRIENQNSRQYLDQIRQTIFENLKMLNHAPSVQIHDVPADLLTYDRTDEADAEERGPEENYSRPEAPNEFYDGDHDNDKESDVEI
HDAC3, sequence (Q9Y618 395-489 partner limits assumed): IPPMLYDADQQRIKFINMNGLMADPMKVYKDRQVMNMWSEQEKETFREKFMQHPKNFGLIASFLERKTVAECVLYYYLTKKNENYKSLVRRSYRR
T2 sequence (Q9UKV0 whole entry): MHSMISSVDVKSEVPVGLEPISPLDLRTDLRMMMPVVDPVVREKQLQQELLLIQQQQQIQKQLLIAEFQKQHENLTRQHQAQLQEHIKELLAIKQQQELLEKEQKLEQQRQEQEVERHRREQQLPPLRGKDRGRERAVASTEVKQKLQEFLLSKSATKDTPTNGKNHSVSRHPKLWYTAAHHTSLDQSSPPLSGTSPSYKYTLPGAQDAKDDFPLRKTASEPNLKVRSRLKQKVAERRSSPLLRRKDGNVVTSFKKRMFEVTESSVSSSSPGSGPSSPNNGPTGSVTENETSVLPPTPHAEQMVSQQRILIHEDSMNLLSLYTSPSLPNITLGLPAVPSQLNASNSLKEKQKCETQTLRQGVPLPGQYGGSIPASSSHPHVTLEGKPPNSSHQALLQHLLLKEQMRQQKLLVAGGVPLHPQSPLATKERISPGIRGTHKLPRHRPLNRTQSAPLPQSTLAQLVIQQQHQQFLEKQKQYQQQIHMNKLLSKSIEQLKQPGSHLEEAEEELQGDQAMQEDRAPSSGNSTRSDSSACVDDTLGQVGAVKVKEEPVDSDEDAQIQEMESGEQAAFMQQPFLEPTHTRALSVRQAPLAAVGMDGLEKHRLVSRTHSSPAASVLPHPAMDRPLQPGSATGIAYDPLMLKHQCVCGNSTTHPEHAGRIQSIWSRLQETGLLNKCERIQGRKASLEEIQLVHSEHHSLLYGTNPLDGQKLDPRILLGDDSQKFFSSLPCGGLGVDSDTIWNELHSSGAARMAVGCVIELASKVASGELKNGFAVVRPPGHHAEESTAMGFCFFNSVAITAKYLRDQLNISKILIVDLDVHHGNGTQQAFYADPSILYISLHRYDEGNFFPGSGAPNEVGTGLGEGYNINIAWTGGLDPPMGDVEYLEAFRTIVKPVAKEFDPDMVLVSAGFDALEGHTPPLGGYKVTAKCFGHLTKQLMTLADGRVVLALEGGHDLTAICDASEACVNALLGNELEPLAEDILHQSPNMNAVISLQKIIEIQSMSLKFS

Cc1ncsc1-c1ccc([C@H](C)NC(=O)[C@@H]2C[C@@H](O)CN2C(=O)[C@@H](NC(=O)CCOCCOCCN(CCc2c[nH]c3ccccc23)Cc2ccc(/C=C/C(=O)NO)cc2)C(C)(C)C)cc1 [Compound 2, (2S,4R)-1-((S)-14-(tert-butyl)-3-(4-((E)-3-(hydroxyamino)-3-oxoprop-1-en-1-yl)benzyl)-1-(1H-indol-3-yl)-12-oxo-6,9-dioxa-3,13-diazapentadecan-15-oyl)-4-hydroxy-N—((S)-1-(4-(4-methylthiazol-5-yl)phenyl)ethyl)pyrrolidine-2-carboxamide]
IC50 [1]: 1.71e-05 M
IC50 [2]: > 2e-05 M
inhibition of HDAC3 deacetylase activity in vitro (in words) [3]: Moderate inhibition
IC50 ([3]; 10-dose response curve, read-out: Compound IC50 (M), HDAC3): 5.77e-07 M
inhibition of HDAC6 activity in vitro (in words) [4]: potently inhibited
IC50 ([4]; 10-dose response curve, read-out: Compound IC50 (M), HDAC6): 7.85e-08 M
